Source: patent publication US9255094B2, “Pyrido[4,3-B]indoles and methods of use” (Medivation Technologies, Inc., priority 2009, dated 2016)

Molecular target: T1, human recombinant serotonin (5-Hydroxytryptamine) 5-HT2A receptor (Homo sapiens, UniProt P28223)
T1 construct: expressed in transfected cells; host or cells: Chinese hamster ovary (CHO-K1) cells
Assay: Serotonin 5-HT2A radioligand binding assay ([3H]Ketanserin)
Details: 0.5 nM [3H]Ketanserin, CHO-K1 cells; for inhibition at 1 µM: compound at 1 μM, read-out: Percent Inhibition of ligand binding, Serotonin (1 μM) 5-HT2A; for inhibition at 0.1 µM: compound at 0.1 μM, read-out: Percent Inhibition of ligand binding, Serotonin (0.1 μM) 5-HT2A
Protocol: Compounds of the invention were incubated with 0.5 nM [^3H]Ketanserin for 60 min at 25° C. Non-specific binding was estimated in the presence of 1 μM Mianserin. Receptor proteins were filtered and washed, the filters were then counted to determine [^3H]Ketanserin specifically bound. Compounds were screened at 1 μM or lower, using 1% DMSO as vehicle. Biochemical assay results are presented as the percent inhibition of specific binding in Table 4.

T1 sequence (P28223 whole entry): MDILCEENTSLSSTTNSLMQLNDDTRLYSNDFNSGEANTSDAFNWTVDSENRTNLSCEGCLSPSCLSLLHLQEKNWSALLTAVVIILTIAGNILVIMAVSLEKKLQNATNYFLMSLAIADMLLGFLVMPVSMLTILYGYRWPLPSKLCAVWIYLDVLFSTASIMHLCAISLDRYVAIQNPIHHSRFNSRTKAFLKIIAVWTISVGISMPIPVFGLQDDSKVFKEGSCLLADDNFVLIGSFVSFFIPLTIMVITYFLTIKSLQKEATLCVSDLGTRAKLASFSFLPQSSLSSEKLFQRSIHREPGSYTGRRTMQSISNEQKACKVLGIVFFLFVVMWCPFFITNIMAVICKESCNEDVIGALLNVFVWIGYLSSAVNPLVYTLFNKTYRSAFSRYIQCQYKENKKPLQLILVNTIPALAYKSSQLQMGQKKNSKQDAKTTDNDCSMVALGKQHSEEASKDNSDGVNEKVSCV

Compound | inhibition at 1 µM [%] | inhibition at 0.1 µM [%]
Cc1ccc2c(c1)c1c(n2CC(O)c2ccc(F)cc2)CCN(C)C1 (stereo not shown) [Compound 1-2, 2-(2,8-dimethyl-3,4-dihydro-1H-pyrido[4,3-b]indol-5(2H)-yl)-1-(4-fluorophenyl)ethanol] | 91 | 
CCC(O)(Cn1c2c(c3cc(C)ccc31)CN(C)CC2)c1ccc(F)cc1 (stereo not shown) [Compound 1-5, 1-(2,8-dimethyl-3,4-dihydro-1H-pyrido[4,3-b]indol-5(2H)-yl)-2-(4-fluorophenyl)butan-2-ol] | 102 | 
CN1CCc2c(c3cc(Cl)ccc3n2CC(O)(c2ccc(F)cc2)C2CCC2)C1 (stereo not shown) [Compound 1-6, 2-(8-chloro-2-methyl-3,4-dihydro-1H-pyrido[4,3-b]indol-5(2H)-yl)-1-cyclobutyl-1-(4-fluorophenyl)ethanol] | 97 | 
CN1CCc2c(c3cc(F)ccc3n2CC(C)(O)c2ccncc2)C1 (stereo not shown) [Compound 1-9, 1-(8-fluoro-2-methyl-3,4-dihydro-1H-pyrido[4,3-b]indol-5(2H)-yl)-2-(pyridin-4-yl)propan-2-ol] | 77 | 
CN1CCc2c(c3ccc(Cl)cc3n2CC(C)(O)c2ccncc2)C1 (stereo not shown) [Compound 1-12, 1-(7-chloro-2-methyl-3,4-dihydro-1H-pyrido[4,3-b]indol-5(2H)-yl)-2-(pyridin-4-yl)propan-2-ol] | 82 | 
CN1CCc2c(c3cccc(F)c3n2CC(C)(O)c2ccncc2)C1 (stereo not shown) [Compound 1-13, 1-(6-fluoro-2-methyl-3,4-dihydro-1H-pyrido[4,3-b]indol-5(2H)-yl)-2-(pyridin-4-yl)propan-2-ol] | 82 | 
CN1CCc2c(c3ccccc3n2CC(C)(O)c2ccncc2)C1 (stereo not shown) [Compound 1-14, 1-(2-methyl-3,4-dihydro-1H-pyrido[4,3-b]indol-5(2H)-yl)-2-(pyridin-4-yl)propan-2-ol] | 74 | 
COc1ccc2c(c1)c1c(n2CC(C)(O)c2ccncc2)CCN(C)C1 (stereo not shown) [Compound 1-16, 1-(8-methoxy-2-methyl-3,4-dihydro-1H-pyrido[4,3-b]indol-5(2H)-yl)-2-(pyridin-4-yl)propan-2-ol] | 50 | 
CN1CCc2c(c3c(Cl)c(Cl)ccc3n2CC(C)(O)c2ccncc2)C1 (stereo not shown) [Compound 1-18, 1-(8,9-dichloro-2-methyl-3,4-dihydro-1H-pyrido[4,3-b]indol-5(2H)-yl)-2-(pyridin-4-yl)propan-2-ol] | 71 | 
CC(C)C(O)(Cn1c2c(c3cc(Cl)ccc31)CN(C)CC2)c1ccncc1 (stereo not shown) [Compound 1-21, 1-(8-chloro-2-methyl-3,4-dihydro-1H-pyrido[4,3-b]indol-5(2H)-yl)-3-methyl-2-(pyridin-4-yl)butan-2-ol] |  | 68
Cc1ccc2c(c1)c1c(n2CC(O)(c2ccncc2)C(C)C)CCN(C)C1 (stereo not shown) [Compound 1-22, 1-(2,8-dimethyl-3,4-dihydro-1H-pyrido[4,3-b]indol-5(2H)-yl)-3-methyl-2-(pyridin-4-yl)butan-2-ol] |  | 71
CCC(O)(Cn1c2c(c3cc(Cl)ccc31)CN(C)CC2)c1ccncc1 (stereo not shown) [Compound 1-23, 1-(8-chloro-2-methyl-3,4-dihydro-1H-pyrido[4,3-b]indol-5(2H)-yl)-2-(pyridin-4-yl)butan-2-ol] |  | 62
Cc1ccc2c(c1)c1c(n2CC(C)(O)c2ccncn2)CCN(C)C1 (stereo not shown) [Compound 1-25, 1-(2,8-dimethyl-3,4-dihydro-1H-pyrido[4,3-b]indol-5(2H)-yl)-2-(pyrimidin-4-yl)propan-2-ol] |  | 17
CN1CCc2c(c3cc(Cl)ccc3n2CC(C)(O)c2ccncn2)C1 (stereo not shown) [Compound 1-26, 1-(8-chloro-2-methyl-3,4-dihydro-1H-pyrido[4,3-b]indol-5(2H)-yl)-2-(pyrimidin-4-yl)propan-2-ol] |  | 23
CN1CCc2c(c3cc(Cl)ccc3n2CC(C)(O)c2cnccn2)C1 (stereo not shown) [Compound 1-27, 1-(8-chloro-2-methyl-3,4-dihydro-1H-pyrido[4,3-b]indol-5(2H)-yl)-2-(pyrazin-2-yl)propan-2-ol] |  | 40
Cc1ccc2c(c1)c1c(n2CC(C)(O)c2cnccn2)CCN(C)C1 (stereo not shown) [Compound 1-28, 1-(2,8-dimethyl-3,4-dihydro-1H-pyrido[4,3-b]indol-5(2H)-yl)-2-(pyrazin-2-yl)propan-2-ol] |  | 30
Cc1ccc2c(c1)c1c(n2CC(C)(O)c2ccncc2)CCN(C)C1 (stereo not shown) [Compound 1-52, 1-(1,2,3,4-tetrahydro-2,8-dimethylpyrido[4,3-b]indol-5-yl)-2-(pyridin-4-yl)propan-2-ol] | 88 | 
CN1CCc2c(c3cc(Cl)ccc3n2CC(C)(O)c2cccnc2)C1 (stereo not shown) [Compound 1-54, 1-(8-chloro-1,2,3,4-tetrahydro-2-methylpyrido[4,3-b]indol-5-yl)-2-(pyridin-3-yl)propan-2-ol] | 77 | 
COc1ccc(C(C)(O)Cn2c3c(c4cc(Cl)ccc42)CN(C)CC3)cc1F (stereo not shown) [Compound 1-59, 1-(8-chloro-1,2,3,4-tetrahydro-2-methylpyrido[4,3-b]indol-5-yl)-2-(3-fluoro-4-methoxyphenyl)propan-2-ol] | 96 | 
